Measured values from publication PMC12030359, “Fluorine-18-Labeled Positron Emission Tomography Probe Targeting Activated p38α: Design, Synthesis, and In Vivo Evaluation in Rodents” (Pharmaceuticals, 2025).
Values belong to the molecule of their own block, whether it stands above or below them.

Tests used:
[1] = design: method as in PMID 21375264; details: acute and chronic toxicity tests in rats; cited from earlier work
[2] = design: method as in PMID 21375264; details: cited from earlier work
[3] = test system: TNF-α and IL-6 production; design: method as in PMID 21375264; details: following oral administration; cited from earlier work
[4] = In vitro stability analysis in mouse plasma; format: in vitro ADME; details: 2 h incubation in mouse plasma at 37 °C, normal-phase TLC
[5] = Biodistribution study after intravenous administration in normal ddY mice; format: in vivo
Experimental: Mice (n = 20, 5 weeks old, 23–29 g) were randomly assigned to five groups (n = 4 each). […] Sample size was limited to four animals per group in adherence to ethical guidelines for the reduction of animal use. Target tissues, including BAT, blood, muscle, bone, brain, heart, lung, stomach, pancreas, spleen, kidneys, liver, and small and large intestines, were excised and weighed, and the radioactivity of each tissue was measured using a γ-counter. The accumulation of radioactivity was expressed as the percentage of the injected dose per gram of tissue (%ID/g) for all tissues except for the stomach, for which it was expressed as the percentage of the injected dose per organ (%ID).

[6] = Log D measurement (1-octanol/PBS); format: physicochemical; details: 1-octanol/PBS (pH = 7.4), room temperature
Experimental: The mixture was shaken for 10 min at room temperature, followed by centrifugation at 10,000 rpm for 10 min. The radioactivity in each phase was measured using a γ counter.

[7] = PET/CT imaging of BAT in normal mouse; format: in vivo, ddY mice
Experimental: A small-animal PET/SPECT/CT scanner (E-Class VECTor^6CT^SD, MILabs, Utrecht, The Netherlands) was used, and it was equipped with a high-efficiency general purpose rat and mouse collimator. After the PET imaging, CT imaging was performed (exposure time: 40 ms, tube voltage: 55 kv, tube current: 0.33 mA). After the CT imaging, the mice were immediately euthanized under anesthesia, their BAT was removed and weighed, and its radioactivity was measured (n = 1). The raw data obtained from the PET scan were reconstructed using the SROSEM method and superimposed onto the CT images. […] The SUVs were then calculated using Amide software 1.0.6 (Slashdot Media, San Francisco, CA, USA).

activated p38α = test system: activated p38α; design: method as in PMID 34410619, PMID 35760973; details: cited from earlier work
[8] = 5 min after i.v. administration
[9] = 15 min after i.v. administration
[10] = 30 min after i.v. administration
[11] = 60 min after i.v. administration
[12] = 120 min after i.v. administration

SMILES: Cn1c(=O)c(Oc2ccc(F)cc2F)cc2cnc(NC3CCOCC3)nc21 [R1487, 6-(2,4-difluorophenoxy)-8-methyl-2-(tetrahydro-2H-pyran-4-ylamino)pyrido [2,3-d]pyrimidin-7(8H)-one]
- acceptable tolerability, no severe adverse events [1]: up to 10 mg/kg
- clearance route [2]: predominantly hepatic clearance
- oral bioavailability ([2]; monkeys, oral administration): 51.6%
- half-life in blood ([2]; monkeys): 22.5 h
- production of TNF-α and IL-6 [3]: suppress

- radioactivity detected in intact form [4]: more than 96%
- Radioactivity in BAT [5, 8]: 16.3 ± 2.7 %ID/g
- Radioactivity in Blood [5, 8]: 2.8 ± 0.1 %ID/g
- Radioactivity in Bone [5, 8]: 6.4 ± 0.7 %ID/g
- Radioactivity in Brain [5, 8]: 2.9 ± 0.5 %ID/g
- Radioactivity in Heart [5, 8]: 5.0 ± 0.8 %ID/g
- Radioactivity in Kidney [5, 8]: 7.7 ± 1.9 %ID/g
- Radioactivity in Large intestine [5, 8]: 2.2 ± 0.7 %ID/g
- Radioactivity in Liver [5, 8]: 11.3 ± 1.9 %ID/g
- Radioactivity in Lung [5, 8]: 4.0 ± 0.6 %ID/g
- Radioactivity in Muscle [5, 8]: 2.7 ± 0.5 %ID/g
- Radioactivity in Pancreas [5, 8]: 4.4 ± 0.9 %ID/g
- Radioactivity in Small intestine [5, 8]: 5.8 ± 1.0 %ID/g
- Radioactivity in Spleen [5, 8]: 4.0 ± 0.9 %ID/g
- Radioactivity in Stomach [5, 8]: 1.1 ± 0.2 %ID
- Radioactivity in BAT [5, 9]: 8.0 ± 2.6 %ID/g
- Radioactivity in Blood [5, 9]: 1.0 ± 0.2 %ID/g
- Radioactivity in Bone [5, 9]: 5.1 ± 0.9 %ID/g
- Radioactivity in Brain [5, 9]: 1.3 ± 0.6 %ID/g
- Radioactivity in Heart [5, 9]: 2.8 ± 0.5 %ID/g
- Radioactivity in Kidney [5, 9]: 5.1 ± 1.3 %ID/g
- Radioactivity in Large intestine [5, 9]: 2.3 ± 0.4 %ID/g
- Radioactivity in Liver [5, 9]: 5.9 ± 1.3 %ID/g
- Radioactivity in Lung [5, 9]: 3.2 ± 0.8 %ID/g
- Radioactivity in Muscle [5, 9]: 2.4 ± 0.3 %ID/g
- Radioactivity in Pancreas [5, 9]: 2.4 ± 0.6 %ID/g
- Radioactivity in Small intestine [5, 9]: 8.6 ± 1.9 %ID/g
- Radioactivity in Spleen [5, 9]: 4.5 ± 0.8 %ID/g
- Radioactivity in Stomach [5, 9]: 1.3 ± 0.5 %ID
- Radioactivity in BAT [5, 10]: 5.2 ± 1.1 %ID/g
- Radioactivity in Blood [5, 10]: 0.7 ± 0.1 %ID/g
- Radioactivity in Bone [5, 10]: 6.7 ± 1.0 %ID/g
- Radioactivity in Brain [5, 10]: 1.0 ± 0.6 %ID/g
- Radioactivity in Heart [5, 10]: 2.3 ± 0.7 %ID/g
- Radioactivity in Kidney [5, 10]: 3.5 ± 0.6 %ID/g
- Radioactivity in Large intestine [5, 10]: 4.3 ± 3.7 %ID/g
- Radioactivity in Liver [5, 10]: 4.7 ± 0.9 %ID/g
- Radioactivity in Lung [5, 10]: 2.3 ± 0.5 %ID/g
- Radioactivity in Muscle [5, 10]: 2.1 ± 0.2 %ID/g
- Radioactivity in Pancreas [5, 10]: 1.9 ± 0.1 %ID/g
- Radioactivity in Small intestine [5, 10]: 16.9 ± 4.0 %ID/g
- Radioactivity in Spleen [5, 10]: 3.3 ± 0.5 %ID/g
- Radioactivity in Stomach [5, 10]: 1.8 ± 0.4 %ID
- Radioactivity in BAT [5, 11]: 2.2 ± 0.6 %ID/g
- Radioactivity in Blood [5, 11]: 0.4 ± 0.1 %ID/g
- Radioactivity in Bone [5, 11]: 6.9 ± 2.9 %ID/g
- Radioactivity in Brain [5, 11]: 0.4 ± 0.2 %ID/g
- Radioactivity in Heart [5, 11]: 1.4 ± 0.1 %ID/g
- Radioactivity in Kidney [5, 11]: 2.4 ± 0.7 %ID/g
- Radioactivity in Large intestine [5, 11]: 4.3 ± 1.6 %ID/g
- Radioactivity in Liver [5, 11]: 3.4 ± 0.3 %ID/g
- Radioactivity in Lung [5, 11]: 1.3 ±0.2 %ID/g
- Radioactivity in Muscle [5, 11]: 1.0 ± 0.1 %ID/g
- Radioactivity in Pancreas [5, 11]: 1.0 ± 0.1 %ID/g
- Radioactivity in Small intestine [5, 11]: 23.8 ± 3.7 %ID/g
- Radioactivity in Spleen [5, 11]: 1.7 ± 0.4 %ID/g
- Radioactivity in Stomach [5, 11]: 4.1 ± 2.2 %ID
- Radioactivity in BAT [5, 12]: 1.0 ± 0.2 %ID/g
- Radioactivity in Blood [5, 12]: 0.2 ± 0.0 %ID/g
- Radioactivity in Bone [5, 12]: 8.7 ± 2.3 %ID/g
- Radioactivity in Brain [5, 12]: 0.2 ± 0.1 %ID/g
- Radioactivity in Heart [5, 12]: 0.7 ± 0.1 %ID/g
- Radioactivity in Kidney [5, 12]: 0.7 ± 0.1 %ID/g
- Radioactivity in Large intestine [5, 12]: 32.6 ± 8.7 %ID/g
- Radioactivity in Liver [5, 12]: 1.8 ± 0.9 %ID/g
- Radioactivity in Lung [5, 12]: 0.4 ± 0.1 %ID/g
- Radioactivity in Muscle [5, 12]: 0.5 ± 0.0 %ID/g
- Radioactivity in Pancreas [5, 12]: 1.0 ± 0.4 %ID/g
- Radioactivity in Small intestine [5, 12]: 13.0 ± 3.4 %ID/g
- Radioactivity in Spleen [5, 12]: 0.9 ± 0.1 %ID/g
- Radioactivity in Stomach [5, 12]: 1.2 ± 0.5 %ID
- time of peak radioactivity in BAT ([5]; post-injection): 5 min
- logD [6]: 2.2
- mean standardized uptake value (SUV) in the BAT ([7]; PET 10–15 min post-intravenous administration, manual ROI): 4.7
- radioactivity in the excised BAT after PET/CT imaging ([7]; γ counter, immediately after PET/CT imaging, n = 1): 11.6 %ID/g
SMILES: Cn1c(=O)c(Oc2ccc([18F])cc2F)cc2cnc(NC3CCOCC3)nc21 [[^18F]R1487, 6-(4-[^18F]fluoro-2-fluorophenoxy)-8-methyl-2-(tetrahydro-2H-pyran-4-ylamino)-pyrido[2,3-d]pyrimidin-7(8H)-one]

SMILES: Cn1c(=O)c(Oc2ccc([77Br])cc2F)cc2cnc(NC3CCOCC3)nc21 [[^77Br]4-BR, 6-(4-[^77Br]bromo-2-fluorophenoxy)-8-methyl-2-(tetrahydro-2H-pyran-4-ylamino)-pyrido[2,3-d]pyrimidin-7(8H)-one]
- inflamed site-to-blood ratio (activated p38α; at 2 h): 4.1
- time of peak radioactivity accumulation in inflamed tissues (activated p38α; post-injection): 15 min
